The results in this text go back to patent US4960770A, “2-alkyl thieno(triazolo)diazepine compounds and pharmaceutical uses thereof” (Yoshitomi Pharmaceutical Industries, Ltd., priority 1987, dated 1990).

In assay [1] the test system is PAF-induced lethal shock. The experiment in a line: Effect of PAF-induced lethal shock in mice. Type of assay: in vivo, male ICR mice. As to conditions: 1 hour before PAF 80 μg/kg i.v., 24 hours. On the procedure:
The experiment was carried out according to the method of Young et al. described in Prostaglandins, vol. 30, p. […] Groups of 9 to 15 male ICR mice (Charles River) weighing 25-30 g were used. 80 μg/kg of PAF (Serdary Research Labo.) solution was intravenously administered in a lateral tail vein 1 hour after the oral administration of test compound (0.1 ml/10 g). […] Results were given as number of survivors/number of employed animals and survival rates (%) in Table 4.

Assay [2] relates to coronary artery blood flow. The experiment in a line: Effect on coronary flow (coronary artery blood flow in anesthetized dogs). Type of assay: in vivo, mongrel dogs. As to conditions: relative to flow increase at 3 μg nifedipine. On the procedure:
Adult mongrel dogs were anesthetized with sodium pentobarbital (30 mg/kg, i.v.). According to the method of Yago et al described in Folia Pharmacologica Japonica, vol. 57, p. 380 (1961), the left coronary artery was perfused and its blood flow was measured. Test compound was injected into the coronary artery at a volume of 10-30 μl. To determine the effect of the test compound on coronary artery blood flow, an increase percentage of blood flow at each dosage was calculated based on the increase of the blood flow at a dosage of 3 μg of nifedipine.

For assay [3], the target named is T1, calmodulin (bovine encephalon) (Bos taurus, UniProt P62157).
T1 construct: calmodulin (bovine encephalon); from tissue; host or cells: bovine encephalon (brain)
The experiment in a line: Calmodulin inhibitory action (NPN fluorescence probe method). The assay is classed as biochemical. As to the method:
Calmodulin inhibitory action was measured according to the modified method of Epstein et al. described in Biochemical and Biophysical Research Communications, Vol. 105, p. 1142 (1982). Briefly, to 25 mM Tris-HCl buffer solution (pH 7.0) were added as a final concentration 1 mM calcium chloride, 5 μM N-phenyl-1-naphthylamine (NPN), 1000 units of calmodulin (bovine encephalon) and each of test compound to give 3 ml of final solution volume. The solution was allowed to stand at room temperature for 1 hour and the fluorescence intensity was measured by a fluorescene photometer (ex. 350 nm, em. 440 nm). A blank was prepared by adding water instead of calmodulin. Each of test compound was dissolved in dimethyl sulfoxide or 2.5% dimethyl sulfoxide solution and the final concentration of dimethyl sulfoxide was adjusted to 0.25%.

Each structure is given as a SMILES string.

Broadly, the IC50 is the concentration that gives 50% inhibition. Higher therefore signals lower potency. With `CCCCCCc1cc2c(s1)-n1c(C)nnc1C(C)N=C2c1ccccc1C` (stereo not shown) [Example 68, 2-hexyl-4-(2-methylphenyl)-6,9-dimethyl 6H-thieno[3,2-f][1,2,4]triazolo[4,3-a][1,4]diazepine], the entries for the “Number of Survivors/Number of Animals” value in assay [1] (0.1 mg/kg p.o.), in assay [1] (0.3 mg/kg p.o.) and in assay [1] (1 mg/kg p.o.) were 5/6, 6/7 and 6/7, respectively. Further, the Survival rate in assay [1] (0.1 mg/kg p.o.) turned out to be 83.3%; in assay [1] (0.3 mg/kg p.o.) it was 85.7%; in assay [1] (1 mg/kg p.o.), 85.7%. The “Effect on coronary blood flow” value in assay [2] (dosage 30 μg into coronary artery) is given as 33%; in assay [2] (dosage 100 μg into coronary artery) it was 63%; in assay [2] (dosage 300 μg into coronary artery), 100%. For the same compound, it took 1100 nM to reach half-maximal inhibition in assay [3] (IC50).
